According to US11897865B2, “ABHD12 inhibitors and methods of making and using same” (THE SCRIPPS RESEARCH INSTITUTE, priority 2018, dated 2024):

Target: T1, ABHD12 (Mus musculus, UniProt Q99LR1)
T1 construct: from tissue; host or cells: brain membrane proteome
T1 sequence (Q99LR1 1-398): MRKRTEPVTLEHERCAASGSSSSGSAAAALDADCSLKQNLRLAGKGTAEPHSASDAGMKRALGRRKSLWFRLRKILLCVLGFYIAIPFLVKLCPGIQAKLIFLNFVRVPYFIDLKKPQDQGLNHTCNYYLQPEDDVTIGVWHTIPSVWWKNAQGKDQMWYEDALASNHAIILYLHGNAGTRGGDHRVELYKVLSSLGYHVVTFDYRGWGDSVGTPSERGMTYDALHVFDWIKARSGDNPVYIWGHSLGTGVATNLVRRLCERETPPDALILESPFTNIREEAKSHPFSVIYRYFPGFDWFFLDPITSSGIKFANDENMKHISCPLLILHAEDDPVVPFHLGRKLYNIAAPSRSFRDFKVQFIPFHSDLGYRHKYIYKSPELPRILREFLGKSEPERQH
Assay: Gel-based competitive ABPP, JJH350 probe vs brain membrane proteome
Type: biochemical
Conditions: for inhibition at 10 µM: 10 μM compound, read-out: % Inhibition @ 10 μM (ABPP gel_JJH350 probe vs brain mem); for IC50: read-out: IC50 (ABPP gel_JJH350 probe vs brain mem)
Method: Gel-Based Competitive ABPP for In Vitro Inhibitor Treatment of Proteomes:
Gel-based ABPP assays were performed as previously reported (Bachovchin, D. A. et al. Superfamily-wide portrait of serine hydrolase inhibition achieved by library-versus-library screening. Proc. Natl. Acad. Sci. U. S. A. 2010, 107, 20941-20946). Cell or tissue proteomes (50 μL, 1 mg/mL) were treated with either FP-Rh (1 μM final concentration) or JJH350 (2 μM final concentration) for 45 min at 37° C. For FP-Rh labeled samples, the reactions were quenched by adding 20 μL of 4× SDS-PAGE loading buffer. The 30 μL of the quenched samples were loaded on gel for analysis. For (S)-1,3-dioxo-7-(4-phenoxybenzoyl)hexahydroimidazo[1,5-a]pyrazin-2(3H)-yl 4-(4-(prop-2-yn-1-yloxy)phenyl)piperazine-1-carboxylate (JJH350)-labeled samples, copper-catalyzed azide-alkyne cycloaddition (CuAAC) was used for visualizing the labeled proteins following the reported protocol. Briefly, rhodamine-PEG3-N3 (1 μL/reaction, 1.25 mM in DMSO), CuSO4 (1 μL/reaction, 50 mM in H2O), TBTA (3 μL/reaction, 1.7 mM in DMSO/t-BuOH [1:4, v/v]) and tris(2-carboxyethyi)phosphine (TCEP) (1 μL/reaction, 50 mM in H2O, freshly prepared) were premixed. 6 μL of this click reagent mixture was immediately added to each JJH350-labeled samples (50 μL, 1 mg/mL) and incubated for 1 h at room temperature. The reactions were quenched by adding 20 μL of 4× SDS-PAGE loading buffer. The 40 μL of the quenched samples were loaded on a gel for analysis.
After separation by SDS-PAGE (10% acrylamide), samples were visualized by in-gel fluorescence scanning using the ChemiDoc MP system (Bio-Rad). Band intensities were quantified using the Image Lab (5.2.1) software (Bio-Rad).

| inhibition at 10 µM | IC50 | SMILES |
| --- | --- | --- |
| ≥ 75% |  | FC(F)(F)Oc1cccc(Oc2ccnc(N3CCC(NC(=S)Nc4cccnc4)CC3)c2)c1 [Example 49, 1-(Pyridin-3-yl)-3-(1-(4-(3-(trifluoromethoxy)phenoxy)pyridin-2-yl)piperidin-4-yl)thiourea] |
| ≥ 75% |  | FC(F)(F)Oc1ccccc1Oc1ccnc(N2CCC(NC(=S)Nc3cccnc3)CC2)c1 [Example 50, 1-(Pyridin-3-yl)-3-(1-(4-(2-(trifluoromethoxy)phenoxy)pyridin-2-yl)piperidin-4-yl)thiourea] |
| ≥ 75% |  | FC(F)(F)c1cccc(Oc2ccnc(N3CCC(NC(=S)Nc4cccnc4)CC3)c2)c1 [Example 52, 1-(Pyridin-3-yl)-3-(1-(4-(3-(trifluoromethyl)phenoxy)pyridin-2-yl)piperidin-4-yl)thiourea] |
| ≥ 75% |  | FC(F)(F)c1ccccc1Oc1ccnc(N2CCC(NC(=S)Nc3cccnc3)CC2)c1 [Example 53, 1-(Pyridin-3-yl)-3-(1-(4-(2-(trifluoromethyl)phenoxy)pyridin-2-yl)piperidin-4-yl)thiourea] |
| ≥ 75% |  | FC(F)(F)Oc1ccc(Oc2ccnc(N3CCC(NC(=S)Nc4cccnc4)CC3)c2)c(Cl)c1 [Example 55, 1-(1-(4-(2-Chloro-4-(trifluoromethoxy)phenoxy)pyridin-2-yl)piperidin-4-yl)-3-(pyridin-3-yl)thiourea] |
| ≥ 75% |  | Fc1cc(Oc2ccnc(N3CCC(NC(=S)Nc4cccnc4)CC3)c2)ccc1OC(F)(F)F [Example 56, 1-(1-(4-(3-Fluoro-4-(trifluoromethoxy)phenoxy)pyridin-2-yl)piperidin-4-yl)-3-(pyridin-3-yl)thiourea] |
| ≥ 75% |  | Fc1ccc(OC(F)(F)F)cc1Oc1ccnc(N2CCC(NC(=S)Nc3cccnc3)CC2)c1 [Example 58, 1-(1-(4-(2-Fluoro-5-(trifluoromethoxy)phenoxy)pyridin-2-yl)piperidin-4-yl)-3-(pyridin-3-yl)thiourea] |
| 0 to 25% |  | FC(F)(F)Oc1ccc(Oc2cc(N3CCC(NC(=S)Nc4cccnc4)CC3)nc(C(F)(F)F)c2)cc1 [Example 60, 1-(Pyridin-3-yl)-3-(1-(4-(4-(trifluoromethoxy)phenoxy)-6-(trifluoromethyl)pyridin-2-yl)piperidin-4-yl)thiourea] |
| ≥ 75% |  | CCCCCc1ccc(Oc2ccnc(N3CCC(NC(=S)Nc4cccnc4)CC3)c2)cc1 [Example 61, 1-(1-(4-(4-Pentylphenoxy)pyridin-2-yl)piperidin-4-yl)-3-(pyridin-3-yl)thiourea] |
| ≥ 75% |  | FC(F)Oc1ccc(Oc2ccnc(N3CCC(NC(=S)Nc4cccnc4)CC3)c2)cc1 [Example 62, 1-(1-(4-(4-(Difluoromethoxy)phenoxy)pyridin-2-yl)piperidin-4-yl)-3-(pyridin-3-yl)thiourea] |
|  | ≤ 100 nM | FC(F)(F)Oc1cc(Oc2ccnc(N3CCC(NC(=S)Nc4cccnc4)CC3)c2Cl)ccc1Cl [Example 63, 1-(1-(3-Chloro-4-(4-chloro-3-(trifluoromethoxy)phenoxy)pyridin-2-yl)piperidin-4-yl)-3-(pyridin-3-yl)thiourea] |
|  | ≤ 100 nM | Fc1cc(Oc2ccnc(N3CCC(NC(=S)Nc4cccnc4)CC3)c2Cl)ccc1OC(F)(F)F [Example 64, 1-(1-(3-Chloro-4-(3-fluoro-4-(trifluoromethoxy)phenoxy)pyridin-2-yl)piperidin-4-yl)-3-(pyridin-3-yl)thiourea] |
|  | ≤ 100 nM | Fc1ccc(Oc2ccnc(N3CCC(NC(=S)Nc4cccnc4)CC3)c2Cl)cc1OC(F)(F)F [Example 68, 1-(1-(3-Chloro-4-(4-fluoro-3-(trifluoromethoxy)phenoxy)pyridin-2-yl)piperidin-4-yl)-3-(pyridin-3-yl)thiourea] |
|  | 100 to 1000 nM | Cc1cc(F)ccc1Oc1ccnc(N2CCC(NC(=S)Nc3cccnc3)CC2)c1Cl [Example 69, 1-(1-(3-Chloro-4-(4-fluoro-2-methylphenoxy)pyridin-2-yl)piperidin-4-yl)-3-(pyridin-3-yl)thiourea] |
|  | 100 to 1000 nM | Cc1cc(Oc2ccnc(N3CCC(NC(=S)Nc4cccnc4)CC3)c2Cl)ccc1F [Example 70, 1-(1-(3-Chloro-4-(4-fluoro-3-methylphenoxy)pyridin-2-yl)piperidin-4-yl)-3-(pyridin-3-yl)thiourea] |
|  | ≤ 100 nM | Cc1cc(OC(F)(F)F)ccc1Oc1ccnc(N2CCC(NC(=S)Nc3cccnc3)CC2)c1Cl [Example 73, 1-(1-(3-Chloro-4-(2-methyl-4-(trifluoromethoxy)phenoxy)pyridin-2-yl)piperidin-4-yl)-3-(pyridin-3-yl)thiourea] |
|  | 1000 to 25000 nM | Cc1ccc(Oc2ccnc(N3CCC(NC(=S)Nc4cccnc4)CC3)c2)cc1 [Example 75, 1-(Pyridin-3-yl)-3-(1-(4-(p-tolyloxy)pyridin-2-yl)piperidin-4-yl)thiourea] |
| 25 to 50% | 1000 to 25000 nM | CC(=O)c1ccnc(N2CCC(NC(=S)Nc3cccnc3)CC2)c1 [Example 76, 1-(1-(4-Acetylpyridin-2-yl)piperidin-4-yl)-3-(pyridin-3-yl)thiourea] |
| 25 to 50% |  | O=C(Nc1cccnc1)NC1CCN(c2ncc(C(F)(F)F)cc2Cl)CC1 [Example 77, 1-(1-(3-Chloro-5-(trifluoromethyl)pyridin-2-yl)piperidin-4-yl)-3-(pyridin-3-yl)urea] |
| 50 to 75% |  | FC(F)(F)c1cnc(N2CCC(NC(=S)Nc3cccnc3)CC2)nc1 [Example 78, 1-(Pyridin-3-yl)-3-(1-(5-(trifluoromethyl)pyrimidin-2-yl)piperidin-4-yl)thiourea] |
| 0 to 25% |  | FC(F)(F)c1ccc(N2CCC(NC(=S)Nc3cccnc3)CC2)nn1 [Example 79, 1-(Pyridin-3-yl)-3-(1-(6-(trifluoromethyl)pyridazin-3-yl)piperidin-4-yl)thiourea] |
| 50 to 75% |  | FC(F)(F)c1cnc(N2CCCC(NC(=S)Nc3cccnc3)CC2)c(Cl)c1 (stereo not shown) [Example 80, 1-(1-(3-Chloro-5-(trifluoromethyl)pyridin-2-yl)azepan-4-yl)-3-(pyridin-3-yl)thiourea] |
| ≥ 75% |  | FC(F)(F)c1cnc(NCCCCCNC(=S)Nc2cccnc2)c(Cl)c1 [Example 81, 1-(5-((3-Chloro-5-(trifluoromethyl)pyridin-2-yl)amino)pentyl)-3-(pyridin-3-yl)thiourea] |
| 50 to 75% |  | CN(C(=S)Nc1cccnc1)C1CCN(c2ncc(C(F)(F)F)cc2Cl)CC1 [Example 82, 1-(1-(3-Chloro-5-(trifluoromethyl)pyridin-2-yl)piperidin-4-yl)-1-methyl-3-(pyridin-3-yl)thiourea] |
| 25 to 50% |  | FC(F)(F)c1cnc(NCCCCNC(=S)Nc2cccnc2)c(Cl)c1 [Example 83, 1-(4-((3-Chloro-5-(trifluoromethyl)pyridin-2-yl)amino)butyl)-3-(pyridin-3-yl)thiourea] |
| 50 to 75% |  | FC(F)(F)c1cnc(NCCCCCCNC(=S)Nc2cccnc2)c(Cl)c1 [Example 84, 1-(6-((3-Chloro-5-(trifluoromethyl)pyridin-2-yl)amino)hexyl)-3-(pyridin-3-yl)thiourea] |

| SMILES | inhibition at 10 µM | IC50 |
| --- | --- | --- |
| FC(F)(F)c1cnc(N2[C@@H]3CC[C@H]2CC(NC(=S)Nc2cccnc2)C3)c(Cl)c1 (stereo partly drawn) [Example 85, 1-((1R,5S)-8-(3-Chloro-5-(trifluoromethyl)pyridin-2-yl)-8-azabicyclo[3.2.1]octan-3-yl)-3-(pyridin-3-yl)thiourea] | 50 to 75% |  |
